According to US7129334B2, “Synthetic peptide and uses for same” (priority 2001, dated 2006):
Where no end group is shown, it is not given here.

Experiments:
PC12 cells = experiment: Neurite growth on PC12 cells; assay type: cell-based
Experimental: Biological Activity of Fragments on PC12 cells: The trypsin digested fragments in various concentrations were tested for neurite growth on PC12 cells. Tissue culture plates having 24 wells were seeded with 10^5 PC12 cells in serum free Dulbeco Modified Eagle's medium (DMEM). The results were read after 96 hours for neurite outgrowth.

[1] = Mitogenic activity of synthetic constructs (deletion series); assay type: cell-based; conditions: constructs of 5 to 21 amino acids compared
Text: Several synthetic constructs were made based on portions of this sequence by deleting one amino acid from one terminal at a time. In this manner, several constructs consisting of 5 to 21 amino acids were made and tested for mitogenic activity. […] […] This peptide is designated hereinafter as Oxynor peptide -10.

[2] = tested on: 6 mm ischemic skin wounds; experiment: 6 mm ischemic skin wounds in rat; assay type: in vivo; conditions: 100 μg/ml in hydrogel vehicle once daily; days 7 and 10
Experimental: Natural β-taipoxin and Oxynor peptide-10 were tested against each other in vivo at a concentration of 100 μg/ml in hydrogel vehicle applied once daily to help heal 6 mm ischemic skin wounds in rat. At days 7 and 10 the wounds treated with Oxynor peptide-10 were about 15% smaller in area than the wounds treated with natural β-taipoxin.

4 mm punched wounds = 4 mm punched wounds on the back of mice; assay type: in vivo
Experimental: Experimentally produced 4 mm punched wounds on the back of mice were treated with β taipoxin to compare with Oxynor peptide-10 treatment.

Anti-β-taipoxin = experiment: Immunological reaction with anti-β-taipoxin; assay type: binding, mice
Text: This proves that Oxynor peptide-10 is an integral part of the natural β-taipoxin.

Substance | neurite growth of trypsin digest fragments (PC12 cells; 10^5 PC12 cells, serum free DMEM, read after 96 hours) | mitogenic activity [1] | wound area smaller than wounds treated with natural β-taipoxin [2] | closure of wounds (4 mm punched wounds; after six days, PBS controls open) | histological examination of the skin around the wounds (4 mm punched wounds; mice, treated wounds) | neurite growth on PC12 cells (PC12 cells; similar concentrations (2 to 5) in serum-free medium) | immunological reaction with anti-β-taipoxin made in mice (Anti-β-taipoxin)
KGGSLLNFANLIENDVPIDHM [Oxynor peptide-21] | most neurite growth at the lowest concentration | – | – | – | – | – | –
SLLNFANLIE [Oxynor peptide-10] | – | most active | about 15% | complete closure of the wounds | epidermis almost like normal skin | produced neurite growth | reacted immunologically
Ser Leu Leu Asn Phe (SLLNF; SYNTHESIZED. CORRESPONDS TO POSITIONS 4-8 ABOVE.) [Oxynor peptide-5] | – | active, but less active | – | – | – | – | –
